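Cells were grown in 96-well plates and exposed to each compound for 48 hours at five concentrations; endpoints were interpolated linearly between bracketing concentrations, or set to the highest concentration if not reached. GI50: concentration for 50% inhibition of growth.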 Activity calls are given as the source filed them. No stated cut-off is given here; in the data, active = GI50 up to about 1.1 µM and inactive = higher.
What was measured:
Assay in all cases: NCI tumour cell line growth inhibition, 48 h
786-0 = tested on: 786-0
A498 = tested on: A498
A549 = tested on: A549
ACHN = tested on: ACHN
BT-549 = tested on: BT-549
CAKI-1 = tested on: CAKI-1
CCRF-CEM = tested on: CCRF-CEM
COLO 205 = tested on: COLO 205
DU-145 = tested on: DU-145
EKVX = tested on: EKVX
HCC 2998 = tested on: HCC 2998
HCT-116 = tested on: HCT-116
HCT-15 = tested on: HCT-15
HL-60 = tested on: HL-60
HOP-62 = tested on: HOP-62
HOP-92 = tested on: HOP-92
HT-29 = tested on: HT-29
K562 = tested on: K562
KM12 = tested on: KM12
M14 = tested on: M14
MCF7 = tested on: MCF7
MDA-MB-231 = tested on: MDA-MB-231
MDA-MB-435 = tested on: MDA-MB-435
MDA-N = tested on: MDA-N
MOLT-4 = tested on: MOLT-4
Malme-3M = tested on: Malme-3M
NCI-H226 = tested on: NCI-H226
NCI-H23 = tested on: NCI-H23
NCI-H460 = tested on: NCI-H460
NCI-H522 = tested on: NCI-H522
NCI/ADR-RES = tested on: NCI/ADR-RES
OVCAR-3 = tested on: OVCAR-3
OVCAR-4 = tested on: OVCAR-4
OVCAR-5 = tested on: OVCAR-5
OVCAR-8 = tested on: OVCAR-8
PC-3 = tested on: PC-3
RPMI-8226 = tested on: RPMI-8226
RXF 393 = tested on: RXF 393
SF-268 = tested on: SF-268
SF-295 = tested on: SF-295
SF-539 = tested on: SF-539
SK-MEL-28 = tested on: SK-MEL-28
SK-MEL-2 = tested on: SK-MEL-2
SK-OV-3 = tested on: SK-OV-3
SN12C = tested on: SN12C
SNB-19 = tested on: SNB-19
SNB-75 = tested on: SNB-75
SR = tested on: SR
SW-620 = tested on: SW-620
T47D = tested on: T47D
U-251 = tested on: U-251
UACC-257 = tested on: UACC-257
UACC-62 = tested on: UACC-62
UO-31 = tested on: UO-31
TK-10 = tested on: TK-10

Compound: Cc1cc2c(O)c(c1)COCc1cc(C)cc(c1O)COCc1cc(C)cc(c1O)COC2
- GI50 (786-0): 47.1 µM (inactive)
- GI50 (A498): > 100 µM (inactive)
- GI50 (A549): > 100 µM (inactive)
- GI50 (ACHN): > 100 µM (inactive)
- GI50 (BT-549): > 100 µM (inactive)
- GI50 (CAKI-1): > 100 µM (inactive)
- GI50 (CCRF-CEM): 32.1 µM (inactive)
- GI50 (COLO 205): 96.2 µM (inactive)
- GI50 (DU-145): > 100 µM (inactive)
- GI50 (EKVX): > 100 µM (inactive)
- GI50 (HCC 2998): > 100 µM (inactive)
- GI50 (HCT-116): 32.7 µM (inactive)
- GI50 (HCT-15): > 100 µM
- GI50 (HL-60): > 100 µM (inactive)
- GI50 (HOP-62): > 100 µM (inactive)
- GI50 (HOP-92): > 100 µM (inactive)
- GI50 (HT-29): 95.3 µM (inactive)
- GI50 (K562): > 100 µM (inactive)
- GI50 (KM12): > 100 µM (inactive)
- GI50 (M14): > 100 µM (inactive)
- GI50 (MCF7): > 100 µM (inactive)
- GI50 (MDA-MB-231): 72.8 µM (inactive)
- GI50 (MDA-MB-435): > 100 µM (inactive)
- GI50 (MDA-N): > 100 µM (inactive)
- GI50 (MOLT-4): > 100 µM (inactive)
- GI50 (Malme-3M): > 100 µM (inactive)
- GI50 (NCI-H226): > 100 µM (inactive)
- GI50 (NCI-H23): > 100 µM (inactive)
- GI50 (NCI-H460): 92 µM (inactive)
- GI50 (NCI-H522): 49.2 µM (inactive)
- GI50 (NCI/ADR-RES): > 100 µM (inactive)
- GI50 (OVCAR-3): > 100 µM (inactive)
- GI50 (OVCAR-4): > 100 µM (inactive)
- GI50 (OVCAR-5): > 100 µM (inactive)
- GI50 (OVCAR-8): 50.1 µM (inactive)
- GI50 (PC-3): > 100 µM (inactive)
- GI50 (RPMI-8226): > 100 µM (inactive)
- GI50 (RXF 393): > 100 µM (inactive)
- GI50 (SF-268): > 100 µM (inactive)
- GI50 (SF-295): > 100 µM (inactive)
- GI50 (SF-539): > 100 µM (inactive)
- GI50 (SK-MEL-28): > 100 µM (inactive)
- GI50 (SK-MEL-2): > 100 µM (inactive)
- GI50 (SK-OV-3): > 100 µM (inactive)
- GI50 (SN12C): > 100 µM (inactive)
- GI50 (SNB-19): > 100 µM (inactive)
- GI50 (SNB-75): 80.5 µM (inactive)
- GI50 (SR): 91 µM (inactive)
- GI50 (SW-620): > 100 µM (inactive)
- GI50 (T47D): > 100 µM (inactive)
- GI50 (U-251): > 100 µM (inactive)
- GI50 (UACC-257): > 100 µM (inactive)
- GI50 (UACC-62): > 100 µM (inactive)
- GI50 (UO-31): > 100 µM (inactive)

Compound: Cc1ccc(/S(Cc2ccccc2)=N\S(=O)(=O)c2ccc(C)cc2)cc1 (centres undefined)
- GI50 (786-0): > 100 µM (inactive)
- GI50 (A549): > 100 µM (inactive)
- GI50 (ACHN): > 100 µM (inactive)
- GI50 (BT-549): > 100 µM (inactive)
- GI50 (CCRF-CEM): > 100 µM (inactive)
- GI50 (COLO 205): > 100 µM (inactive)
- GI50 (DU-145): > 100 µM (inactive)
- GI50 (EKVX): > 100 µM (inactive)
- GI50 (HCT-116): > 100 µM (inactive)
- GI50 (HCT-15): 95.1 µM
- GI50 (HL-60): > 100 µM (inactive)
- GI50 (HOP-62): > 100 µM (inactive)
- GI50 (HOP-92): > 100 µM (inactive)
- GI50 (HT-29): > 100 µM (inactive)
- GI50 (K562): > 100 µM (inactive)
- GI50 (KM12): > 100 µM (inactive)
- GI50 (M14): > 100 µM (inactive)
- GI50 (MCF7): > 100 µM (inactive)
- GI50 (MDA-MB-435): > 100 µM (inactive)
- GI50 (MDA-N): > 100 µM (inactive)
- GI50 (MOLT-4): 5.92 µM (inactive)
- GI50 (Malme-3M): > 100 µM (inactive)
- GI50 (NCI-H226): > 100 µM (inactive)
- GI50 (NCI-H23): > 100 µM (inactive)
- GI50 (NCI-H460): > 100 µM (inactive)
- GI50 (NCI/ADR-RES): 50 µM (inactive)
- GI50 (OVCAR-3): > 100 µM (inactive)
- GI50 (OVCAR-5): > 100 µM (inactive)
- GI50 (OVCAR-8): > 100 µM (inactive)
- GI50 (PC-3): > 100 µM (inactive)
- GI50 (RPMI-8226): > 100 µM (inactive)
- GI50 (RXF 393): > 100 µM (inactive)
- GI50 (SF-268): > 100 µM (inactive)
- GI50 (SF-295): > 100 µM (inactive)
- GI50 (SF-539): > 100 µM (inactive)
- GI50 (SK-MEL-28): > 100 µM (inactive)
- GI50 (SN12C): > 100 µM (inactive)
- GI50 (SNB-19): > 100 µM (inactive)
- GI50 (SR): > 100 µM (inactive)
- GI50 (SW-620): > 100 µM (inactive)
- GI50 (T47D): > 100 µM (inactive)
- GI50 (TK-10): > 100 µM (inactive)
- GI50 (U-251): > 100 µM (inactive)
- GI50 (UACC-257): > 100 µM (inactive)
- GI50 (UO-31): > 100 µM (inactive)

From ChEMBL document CHEMBL1201862, “PubChem BioAssay data set” (2004)
